In US8389512B2 (priority 2008, dated 2013):

How the values were obtained:
[1] = 4 hr in-vivo study: meloxicam plasma concentration after oral delivery to rats; details: rat
Text: Male Sprague-Dawley rats, 250-300 g, received with a surgically implanted jugular catheter in place from (Harlan or Taconic Laboratories, USA). Animals were housed one per polycarbonate cage utilizing individual cage cards, with free access to food and water in accordance with NIH guidelines. Animals were quarantined at least 24 hrs after arrival prior to use and patency of the implanted catheter determined on the day of the test. Environmental controls for the animal room were set to maintain 18 to 26° C., a relative humidity of 30 to 70%, a minimum of 10 air changes/hour, and a 12-hour light/12-hour dark cycle. […] Each rat was weighed and the dose volume adjusted accordingly so that the effect of weight variability on results of study was eliminated and that each rat received 1 mg/kg dose.
Briefly, using a gradient elution with a Waters Symmetry C18 column (Waters Inc. USA), LCMS with selective reaction monitoring, protein precipitation of the plasma sample using acetonitrile where an LOQ of 50 ng/ml was achieved. Pharmacokinetic parameters were calculated from individual animal samples using appropriate software (PK Solutions 2.0, Summit Research Services, Montrose, Calif., USA).

[2] = 24 hr in-vivo study: meloxicam plasma concentration and pharmacokinetics after oral (gavage) administration to male rats; details: male rats, 1 mg/kg oral; for AUC (area under the plasma concentration-time curve at 24 h) / Cmax (peak plasma concentration) / F (bioavailability): mean N = 5; for Time to Reach 0.59 μg/ml: calculated by interpolation of time vs. concentration data
Text: Male Sprague-Dawley rats, 250-300 g, received with a surgically implanted jugular catheter in place from (Harlan or Taconic Laboratories, USA). Animals were housed one per polycarbonate cage utilizing individual cage cards, with free access to food and water in accordance with NIH guidelines. Animals were quarantined at least 24 hrs after arrival prior to use and patency of the implanted catheter determined on the day of the test. Environmental controls for the animal room were set to maintain 18 to 26° C., a relative humidity of 30 to 70%, a minimum of 10 air changes/hour, and a 12-hour light/12-hour dark cycle. Rats historically have been used in safety evaluation and PK screening studies and are recommended by appropriate regulatory agencies. […] Each rat was weighed and the dose volume adjusted accordingly so that the effect of weight variability on results of study was eliminated and that each rat received 1 mg/kg dose.
Pharmacokinetic parameters were calculated from individual animal samples using appropriate software (PK Solutions 2.0, Summit Research Services, Montrose, Calif., USA).

SMILES | meloxicam plasma concentration ([1]; time 0 min) [µg/mL] | meloxicam plasma concentration ([1]; time 15 min) | meloxicam plasma concentration ([1]; time 30 min) [µg/mL] | meloxicam plasma concentration ([1]; time 45 min) [µg/mL] | meloxicam plasma concentration ([1]; time 60 min) [µg/mL] | meloxicam plasma concentration ([1]; time 120 min) [µg/mL] | meloxicam plasma concentration ([1]; time 240 min) [µg/mL] | meloxicam plasma concentration ([2]; N = 5, 0.25 hour) [µg/mL] | meloxicam plasma concentration ([2]; N = 5, 0.5 hour) [µg/mL] | AUC (area under the plasma concentration-time curve at 24 h) [2] [ng·h/mL] | Cmax (peak plasma concentration) [2] [ng/mL] | F (bioavailability) [2] [%] | Time to Reach 0.59 μg/ml [2] [min] | meloxicam plasma concentration ([1]; time 15 min, listed as 87) [µg/mL] | meloxicam plasma concentration ([1]; time 30 min, listed as 87) [µg/mL] | meloxicam plasma concentration ([1]; time 45 min, listed as 87) [µg/mL] | meloxicam plasma concentration ([1]; time 60 min, listed as 87) [µg/mL] | meloxicam plasma concentration ([1]; time 120 min, listed as 87) [µg/mL] | meloxicam plasma concentration ([1]; time 240 min, listed as 87) [µg/mL]
Cc1cnc(NC(=O)C2=C(O)c3ccccc3S(=O)(=O)N2C)s1.O=C(O)/C=C\C(=O)O [Cocrystal 21, Meloxicam:Maleic Acid Cocrystal (1:1)] | 0.3 | 19.77 µg/mL | 26.13 | 31.19 | 32.84 | 35.02 | 42.12 | 0.62 | 0.72 | 25300 | 1490 | 39.8 | 13.4 | – | – | – | – | – | –
Cc1cnc(NC(=O)C2=C(O)c3ccccc3S(=O)(=O)N2C)s1.O=C(O)CC(=O)O [Cocrystal 22, Meloxicam:Malonic Acid Cocrystal (1:1)] | 0 | 7.51 µg/mL | 22.15 | 27.00 | 29.33 | 29.57 | – | – | – | – | – | – | – | – | – | – | – | – | –
Cc1cnc(NC(=O)C2=C(O)c3ccccc3S(=O)(=O)N2C)s1.O=C(O)CO [Cocrystal 28, Meloxicam:Glycolic Acid Cocrystal (1:1)] | 0 | 6.25 µg/mL | 16.88 | 22.66 | 27.26 | 20.77 | 34.50 | – | – | – | – | – | – | – | – | – | – | – | –
Cc1cnc(NC(=O)C2=C(O)c3ccccc3S(=O)(=O)N2C)s1.Cc1cnc(NC(=O)C2=C(O)c3ccccc3S(=O)(=O)N2C)s1.O=C(O)C[C@H](O)C(=O)O [Cocrystal 71, Meloxicam: L-Malic Acid Cocrystal (2:1)] | 0 | 24.98 µg/mL | 32.05 | 30.38 | 30.95 | – | 38.59 | – | – | – | – | – | – | – | – | – | – | – | –
Cc1cnc(NC(=O)C2=C(O)c3ccccc3S(=O)(=O)N2C)s1.O=C(O)c1ccc2ccccc2c1O [Cocrystal 76, Meloxicam: 1-Hydroxy-2-Naphthoic Acid Cocrystal (1:1)] | 0 | – | 39.24 | 45.29 | 44.60 | 46.24 | 52.24 | 2.1 | 2.49 | 62500 | 4150 | 98.3 | 6.5 | – | – | – | – | – | –
Cc1cnc(NC(=O)C2=C(O)c3ccccc3S(=O)(=O)N2C)s1.O=C(O)c1ccccc1O [Cocrystal 87, Meloxicam:Salicylic Acid Cocrystal Form I (1:1)] | 0 | – | – | – | – | – | – | – | – | – | – | – | – | 23.61 | 26.76 | 28.85 | 26.79 | 34.16 | 36.54
Cc1cnc(NC(=O)C2=C(O)c3ccccc3S(=O)(=O)N2C)s1.O=C(O)c1ccccc1O [Cocrystal 88, Meloxicam:Salicylic Acid Cocrystal Form III (1:1)] | – | 42.10 µg/mL | 38.19 | 40.48 | 41.18 | 40.50 | 49.13 | 0.7675 | 0.8975 | 29600 | 2230 | 46.5 | 11.3 | – | – | – | – | – | –
Cc1cnc(NC(=O)C2=C(O)c3ccccc3S(=O)(=O)N2C)s1.O=C(O)CCCC(=O)O [Cocrystal 92, Meloxicam:Glutaric Acid Cocrystal (1:1)] | 0 | 5.61 µg/mL | 13.16 | 19.11 | 27.72 | 35.94 | 55.35 | – | – | – | – | – | – | – | – | – | – | – | –
Cc1cnc(NC(=O)C2=C(O)c3ccccc3S(=O)(=O)N2C)s1.Cc1cnc(NC(=O)C2=C(O)c3ccccc3S(=O)(=O)N2C)s1.O=C(O)/C=C/C(=O)O [Cocrystal 143, Meloxicam:Fumaric Acid Cocrystal (2:1)] | 0 | 3.33 µg/mL | 6.69 | 9.69 | 13.39 | 20.93 | 30.23 | – | – | – | – | – | – | – | – | – | – | – | –
Cc1cnc(NC(=O)C2=C(O)c3ccccc3S(=O)(=O)N2C)s1.Cc1cnc(NC(=O)C2=C(O)c3ccccc3S(=O)(=O)N2C)s1.O=C(O)CCC(=O)O [Cocrystal 144, Meloxicam:Succinic Acid Cocrystal (2:1)] | 0 | 13.76 µg/mL | – | 32.54 | 38.13 | 44.02 | 43.47 | 0.23 | – | 28400 | 1780 | 44.7 | 45.1 | – | – | – | – | – | –
Cc1cnc(NC(=O)C2=C(O)c3ccccc3S(=O)(=O)N2C)s1.Cc1cnc(NC(=O)C2=C(O)c3ccccc3S(=O)(=O)N2C)s1.O=C(O)CCCCC(=O)O [Cocrystal 152, Meloxicam:Adipic Acid Cocrystal (2:1)] | 0 | 9.72. μg/ml | 22.85 | 28.37 | 30.09 | 38.23 | 47.85 | – | – | – | – | – | – | – | – | – | – | – | –
Cc1cnc(NC(=O)C2=C(O)c3ccccc3S(=O)(=O)N2C)s1.O=C(O)c1ccccc1 [Cocrystal 153, Meloxicam:Benzoic Acid Cocrystal (1:1)] | 0 | 21.94 µg/mL | 25.88 | 28.30 | 28.11 | 33.31 | 42.51 | – | – | – | – | – | – | – | – | – | – | – | –
Cc1cnc(NC(=O)C2=C(O)c3ccccc3S(=O)(=O)N2C)s1.Cc1cnc(NC(=O)C2=C(O)c3ccccc3S(=O)(=O)N2C)s1.O=C(O)CC(O)C(=O)O [Cocrystal 154, Meloxicam:DL-Malic Acid Cocrystal (2:1)] | 0 | 11.19 µg/mL | 16.59 | 21.96 | 24.90 | 32.31 | 49.72 | – | – | – | – | – | – | – | – | – | – | – | –
Cc1cnc(NC(=O)C2=C(O)c3ccccc3S(=O)(=O)N2C)s1.O=C(O)CCc1ccccc1 [Cocrystal 164, Meloxicam:Hydrocinnamic Acid Cocrystal (1:1)] | 0 | 9.53 µg/mL | 11.42 | 16.19 | 18.24 | 25.918 | 45.70 | – | – | – | – | – | – | – | – | – | – | – | –
